Data set [1] has as its target T1, human fibroblast collagenase (Homo sapiens, UniProt P03956).
T1 construct: collagenase derived from human fibroblasts; from tissue; host or cells: human fibroblasts
T1 sequence (P03956 100-469): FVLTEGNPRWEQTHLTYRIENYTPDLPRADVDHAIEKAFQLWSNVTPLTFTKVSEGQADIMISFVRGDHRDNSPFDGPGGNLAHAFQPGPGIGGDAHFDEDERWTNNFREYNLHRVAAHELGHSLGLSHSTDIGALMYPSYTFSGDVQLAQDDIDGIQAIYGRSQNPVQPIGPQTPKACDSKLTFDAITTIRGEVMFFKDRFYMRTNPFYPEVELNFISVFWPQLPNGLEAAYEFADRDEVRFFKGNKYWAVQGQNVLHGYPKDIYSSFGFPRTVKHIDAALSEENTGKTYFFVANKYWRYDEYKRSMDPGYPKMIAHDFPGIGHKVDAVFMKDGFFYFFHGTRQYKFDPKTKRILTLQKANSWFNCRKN
The data set can be described thus: Inhibitory activity against human fibroblast collagenase (method of Nagai, FITC-derivatized bovine type I collagen). Format: biochemical. How it is done: (§1) (1) Inhibitory activity against collagenases
(§2) The inhibitory activity against human fibroblast collagenase (collagenase derived from human fibroblasts), tadpole-derived collagenase and bacteria (Clostridium)-derived collagenase was assayed in accordance with the method of Nagai [see Ensho, 4(2), 123 (1984)] using a fluorescence-labeledcollagen (FITC-derivatized bovine type I collagen).

Data set [2] deals with mice. The experiment in a line: Acute toxicity test (LD50) in mice. Format: in vivo. An excerpt:
The toxicity of the new peptide compounds of this invention is as follows:
Acute toxicity test (LD50) in mice

The test system of data set [3] is sword bean-derived urease. The experiment in a line: Inhibitory activity against urease (method of Kobashi et al.). The note with it: at 4.0 × 10^-3 M. It is filed as biochemical. How it is done: (2) Inhibitory activity against urease
The inhibitory activity against urease was assayed in accordance with the method of Kobashi et al. [see Biochem. Biophys.

Data set [4] has as its target α-chymotrypsin (Bos taurus, UniProt P00766). The data set can be described thus: Inhibitory activity against α-chymotrypsin (method of Laskowski, thermally denatured casein substrate). It is filed as biochemical. The note with it: for inhibition at 4000 µM: at 4.0 × 10^-3 M. The protocol: (§3) (3) Inhibitory activity against thermolysin, trypsin and α-chymotrypsin
(§4) This was assayed in accordance with the method of Laskowski [see Meth. Enzymol., 2, 8 (1955)] using a thermally denatured casein as substrate for the respective enzymes (i.e. thermolysin, trypsin and α-chymotrypsin).

Data set [5] relates to bacteria (Clostridium)-derived collagenase. The data set can be described thus: Inhibitory activity against bacteria (Clostridium)-derived collagenase (method of Nagai, FITC-derivatized bovine type I collagen). It is filed as biochemical. How it is done: as §1, §2
Data set [6] has as its system trypsin. The experiment in a line: Inhibitory activity against trypsin (method of Laskowski, thermally denatured casein substrate). It is filed as biochemical. How it is done:
as §3, §4

The target in data set [7] is T2, thermolysin (Bacillus thermoproteolyticus, UniProt P00800).
T2 sequence (P00800 233-548): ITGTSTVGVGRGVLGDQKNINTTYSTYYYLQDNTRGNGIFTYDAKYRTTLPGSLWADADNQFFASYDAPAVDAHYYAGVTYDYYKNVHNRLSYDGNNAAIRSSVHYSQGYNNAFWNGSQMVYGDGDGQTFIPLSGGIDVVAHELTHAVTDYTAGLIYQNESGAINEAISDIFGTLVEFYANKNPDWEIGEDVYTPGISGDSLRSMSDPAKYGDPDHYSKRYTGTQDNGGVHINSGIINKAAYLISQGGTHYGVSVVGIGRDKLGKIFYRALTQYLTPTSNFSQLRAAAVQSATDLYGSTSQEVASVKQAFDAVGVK
The experiment in a line: Inhibitory activity against thermolysin (method of Laskowski, thermally denatured casein substrate). Format: biochemical. The following applies: for inhibition at 4000 µM: at 4.0 × 10^-3 M. The protocol: as §3, §4

Data set [8] has as its target T3, tadpole-derived collagenase (Aquarana catesbeiana, UniProt Q11133).
T3 construct: collagenase from tadpoles; from tissue
T3 sequence (Q11133 89-384): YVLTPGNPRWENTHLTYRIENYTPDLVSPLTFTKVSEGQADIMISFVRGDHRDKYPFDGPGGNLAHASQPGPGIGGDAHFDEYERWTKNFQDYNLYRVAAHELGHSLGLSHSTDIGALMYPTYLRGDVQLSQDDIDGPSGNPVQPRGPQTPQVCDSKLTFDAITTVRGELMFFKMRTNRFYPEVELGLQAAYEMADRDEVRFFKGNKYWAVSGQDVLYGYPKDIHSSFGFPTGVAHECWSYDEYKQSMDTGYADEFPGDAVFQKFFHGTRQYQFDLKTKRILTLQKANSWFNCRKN
The data set can be described thus: biochemical. The protocol:
as §1, §2

[9] abbreviates: read-out: IC50 Human fibroblast collagenase.

Read-outs that look alike come from different tables or passages of the source. Square brackets hold non-standard residues; d marks the D form. Peptide text beside a SMILES is read from it. * marks the point of attachment. Benzoyl(4-OH) = O=C(c1ccc(O)cc1)*; 4Abz = Nc1ccc(C(=O)O)cc1; Boc = CC(C)(C)OC(=O)*; Bz = O=C(c1ccccc1)*; NHOH = ON*

With `CC(C)C[C@@H](NC(=O)[C@@H]1CCCN1C(=O)CNC(=O)c1ccc(N)cc1)C(=O)N[C@H](C)C(=O)NO` [Example 6] (H-[4Abz]GP[dL][dA]-{NHOH}; N-terminus and C-terminus assumed), the IC50 in data set [1] (setting [9]) was 1.28 µM. For the same molecule, in data set [2], the “LD50 Intraperitoneal administration” value was above 2000 mg/kg and the “LD50 Intravenous administration” value was above 200 mg/kg. Also, the “Inhibition (%) Urease” value in data set [3] was found to be 2.0%. This molecule also yielded an inhibition at 2000 µM in data set [4] (at 2.0 × 10^-3 M) of 26.4%. In addition, in data set [5] (at 2.0 × 10^-4 M), the “Inhibition (%) Bacterial collagenase” value is 7.1%. Moreover, the “Inhibition (%) Trypsin” value in data set [6] (at 2.0 × 10^-3) stood at 6.5%. The molecule also registered an inhibition at 4000 µM in data set [7] of 26.8%.

Consider `CC(C)C[C@@H](NC(=O)[C@@H]1CCCN1C(=O)CNC(=O)c1ccc(O)cc1)C(=O)N[C@H](C)C(=O)NO` [Example 7, p-Hydroxybenzoyl-glycyl-L-prolyl-D-leucyl-D-alanylhydroxamic acid] ({Benzoyl(4-OH)}-GP[dL][dA]-{NHOH}), for which the IC50 in data set [1] (setting [9]) amounted to 1.18 µM; in data set [8], 1.05 µM. In addition, in data set [2], the “LD50 Intraperitoneal administration” value was above 2000 mg/kg. The “LD50 Intravenous administration” value in data set [2] was above 200 mg/kg. The inhibition at 4000 µM in data set [4] came to 22.3%; in data set [7], 60.4%.

Take `CC(C)C[C@H](NC(=O)[C@@H]1CCCN1C(=O)CNC(=O)OC(C)(C)C)C(=O)N[C@H](C(=O)NO)C(C)C` [Example 18, BocGlyProLeuValNHOH] (Boc-GPLV-{NHOH}): the figures for the 50% inhibitory concentration (IC50) in data set [1] (setting [9]) and in data set [8] were 3.1 µM and 9.8 µM, respectively. For the same molecule, in data set [4], the inhibition at 4000 µM came out at 0%. In data set [7] (at 1.01 × 10^-2 M), this molecule registered an inhibition at 10100 µM of 50%.

In the case of `CC(C)C[C@H](NC(=O)[C@@H]1CCCN1C(=O)CNC(=O)c1ccccc1)C(=O)N[C@@H](C)C(=O)NO` [Example 34, BzGlyProLeuAlaNHOH] (Bz-GPLA-{NHOH}), the IC50 in data set [1] was 2.7 µM; in data set [8], 7.7 µM. The same molecule showed an inhibition at 200 µM in data set [4] (at 2.0 × 10^-4 M) of 0%. Further, in data set [7], at 4000 µM the inhibition was 35%.

`CC(C)C[C@@H](NC(=O)[C@@H]1CCCN1C(=O)CNC(=O)c1ccccc1)C(=O)N[C@H](C)C(=O)NO` [Example 35, BzGlyPro-D-Leu-D-AlaNHOH] (Bz-GP[dL][dA]-{NHOH}): the IC50 stood at 6.4 µM in data set [1] and 3.1 µM in data set [8]. The same molecule had an inhibition at 100 µM in data set [4] (at 1.0 × 10^-4 M) of 12.8%. Further, in data set [7], at 4000 µM the inhibition was 38%.

Regarding `CC(C)C[C@@H](NC(=O)[C@@H](CC(C)C)NC(=O)[C@@H]1CCCN1C(=O)CN1C(=O)c2ccccc2C1=O)C(=O)NO` [Example 40, PTHGlyPro-D-Leu-D-LeuNHOH], the figures for the IC50 in data set [1] (setting [9]) and in data set [8] (read-out: IC50 Tadpole collagenase) were 3.6 µM and 3.1 µM, respectively. Further, in data set [3], the “Inhibition (%) Urease” value was determined as 3.3%. Besides, the inhibition at 10000 µM in data set [4] (at 1.0 × 10^-2 M) turned out to be 22.3%. Further, the “Inhibition (%) Bacterial collagenase” value in data set [5] (at 4.0 × 10^-3 M) came out at 20.7%. In data set [6] (at 1.0 × 10^-2), the “Inhibition (%) Trypsin” value is given as 21.6%. The molecule also returned an inhibition at 4000 µM in data set [7] of 32.2%.

In the case of `CC(C)C[C@H](NC(=O)[C@@H]1CCCN1C(=O)CNC(=O)c1ccc(N)cc1)C(=O)N[C@@H](C)C(=O)NO` [Example 41, AcOH.ABAGlyProLeuAlaNHOH] (H-[4Abz]GPLA-{NHOH}), the IC50 in data set [1] (setting [9]) turned out to be 3.7 µM; in data set [8], 4 µM. Moreover, in data set [2], the “LD50 Intraperitoneal administration” value was above 2000 mg/kg. Besides, the “LD50 Intravenous administration” value in data set [2] is recorded as above 200 mg/kg. In addition, the inhibition at 20 µM was determined as 27.3% in data set [4] (at 2.0 × 10^-5 M) and 4% in data set [7] (at 2.0 × 10^-5 M).

The term IC50 denotes the concentration that gives 50% inhibition. One may read the inhibition as the relative decrease from the control value, in per cent.

The values are drawn from patent publication US5100874A, “Hydroxamic acid tetrapeptide derivatives” (Fuji Yakuhin Kogyo Kabushiki Kaisha, priority 1987, dated 1992).
